Like-named read-outs stand apart in the source and are kept apart here. Marks after values point to notes of the source that are not given here. Bridge positions count the residues as written; N and C are the ends. Square brackets hold non-standard residues; d marks the D form. Peptide text beside a SMILES is read from it. * marks the point of attachment. Ileψ(thiazoline)Cys = CC[C@H](C)[C@H](N)C1=N[C@H](C(=O)*)CS1; dOrn = NCCC[C@@H](N)C(=O)O
Columns and labels:
[1] = test system: Human influenza A virus (A/WS/33 [H1N1]); assay: microbe, parasite or virus in culture; format: cell-based; conditions: for SI for A/WS/33 (selectivity index): CC50/EC50, MDCK cells; for EC50: read-out: EC50 A/WS/33; for inhibition of replication of A/WS/33 (in words): MDCK cells
PDI1 enzyme = PDI1 enzyme (Homo sapiens, UniProt P07237); assay: ProteoStat PDI assay; format: biochemical; conditions: for effect on PDI1 activity (in words): at 10 or 50 µM; for PDI1 activity relative to mock: mock = 100, SD in parentheses
Sequence of PDI1 enzyme (P07237 18-508): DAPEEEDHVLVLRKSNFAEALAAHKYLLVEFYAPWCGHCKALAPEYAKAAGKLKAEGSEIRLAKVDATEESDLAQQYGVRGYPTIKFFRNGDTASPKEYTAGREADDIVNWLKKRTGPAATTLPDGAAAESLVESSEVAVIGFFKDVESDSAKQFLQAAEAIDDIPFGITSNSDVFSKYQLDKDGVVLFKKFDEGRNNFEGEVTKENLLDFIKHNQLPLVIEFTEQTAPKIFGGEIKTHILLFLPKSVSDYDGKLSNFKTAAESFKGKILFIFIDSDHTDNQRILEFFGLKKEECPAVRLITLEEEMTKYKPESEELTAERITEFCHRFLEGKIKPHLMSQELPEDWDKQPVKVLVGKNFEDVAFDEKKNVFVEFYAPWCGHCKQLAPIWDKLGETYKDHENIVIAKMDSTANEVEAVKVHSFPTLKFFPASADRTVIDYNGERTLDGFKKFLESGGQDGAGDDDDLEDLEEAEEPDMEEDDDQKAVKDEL

[2] = Nonspecific cytotoxicity, CytoTox 96 assay; format: cell-based, canine; conditions: dog, MDCK cells
[3] = test system: Swine influenza A virus (A/swine/OH/511445/2007 [H1N1], Oh7); assay: microbe, parasite or virus in culture; format: cell-based; conditions: read-out: EC50 A/swine/OH/2007
[4] = test system: influenza B virus (B/Lee/40); assay: Antiviral assay, virus titration by TCID50, MDCK cells; format: cell-based; conditions: for EC50: Influenza B virus, MDCK, read-out: EC50 B/Lee/40; for inhibition of replication of B/Lee/40 (in words): MDCK cells
A/WS/33 = format: cell-based, influenza A virus
MDCK cells = assay: Nonspecific cytotoxicity, CytoTox 96 assay; format: cell-based, canine; conditions: 24 hr treatment, SD in parentheses
Group A rotavirus SA11 = assay: Rotavirus replication in MA104 cells; format: cell-based
[5] = Influenza A virus, H1N1, MDCK, in Sus scrofa

Row | Compound | SI for A/WS/33 (selectivity index) [1] | EC50 ([1]; Influenza A virus, H1N1, MDCK) [µM] | inhibition of replication of A/WS/33 (in words) [1] | effect on PDI1 activity (in words) (PDI1 enzyme) | PDI1 activity relative to mock (PDI1 enzyme; compound at 10 µM) | PDI1 activity relative to mock (PDI1 enzyme; compound at 50 µM) | CC50 at 24 h [2] [µM] | EC50 [3, 5] [µM] | EC50 [4] [µM] | EC50 [1] [µM] | reduction of viral proteins (NP or M1), Western blot (A/WS/33) | CC50 (MDCK cells) [µM] | EC50 [3] [µM] | EC50 (Group A rotavirus SA11; Rotavirus A, MA104, read-out: EC50 rotavirus SA11 replication) [µM] | inhibition of replication of B/Lee/40 (in words) [4] | EC50 (Group A rotavirus SA11; read-out: EC50 rotavirus SA11 replication, MA104 cells) [µM]
1 | NC12CC3CC(CC(C3)C1)C2 [Amantidine, amantadine] | >83.3 | 1.2 | potently inhibited | little effect | 102 (5) % | 103 (4) % | > 100 | 1.4 | > 100 | – | – | – | – | – | – | –
2 | PACMA31 | – | – | – | – | 91 (3) % | 71 (9) ^* % | – | – | – | 6.1 | dose-dependent | 12.5 | – | – | – | –
3 | C/C1=C/[C@H](O)C(C)(C)CCC/C(C)=C/C[C@H]1OC(=O)c1ccc(O)cc1 [Juniferdin, juniferdin] | 8.8 | 1.5 | – | – | 41 (5) ^* % | 6 (4) ^* % | 13.2 | 1.8 | 3.1 | – | dose-dependent | – | – | – | – | –
4 | COC(=O)C1(C)c2[nH]c3ccccc3c2CCN1C(=O)CCl (centres unmarked) [16F16] | – | – | – | – | 89 (6) % | 59 (6) ^* % | – | – | – | 5.1 | – | 15 | 5.8 | – | – | –
5 | CC(C)(C)N([O])C(C)(C)C [Di-tert-butyl nitroxide (DTBN), Di-tert-butyl nitroxide] | – | – | – | – | 67 (6) ^* % | 25 (9) ^* % | – | – | – | 210 | – | > 1000 | – | – | – | –
6 | O=c1c(O[C@@H]2O[C@H](CO)[C@@H](O)[C@H](O)[C@H]2O)c(-c2ccc(O)c(O)c2)oc2cc(O)cc(O)c12 [Isoquercetin (IQ), isoquercetin] | 90 | 0.5 | – | – | 32 (5) ^* % | 13 (8) ^* % | 45.5 | 1.2 | 1.2 | – | – | – | – | – | – | –
7 | COC1=C2C[C@@H](C)C[C@H](OC)[C@H](O)[C@@H](C)/C=C(\C)[C@H](OC(N)=O)[C@@H](OC)/C=C\C=C(/C)C(=O)NC(=CC1=O)C2=O [GDA, geldanamycin] | – | > 10 | did not show any inhibitory activity | little effect | 102 (5) % | 96 (2) % | – | > 10 | > 10 | – | – | – | – | < 1 | did not show any inhibitory activity | –
8 | C=CCNC1=C2C[C@@H](C)C[C@H](OC)[C@H](O)[C@@H](C)/C=C(\C)[C@H](OC(N)=O)[C@@H](OC)/C=C\C=C(/C)C(=O)NC(=CC1=O)C2=O [17-AAG, 17-N-Allylamino-17-demethoxygeldanamycin] | – | – | did not show any inhibitory activity | – | – | – | – | – | – | > 10 | – | – | – | – | did not show any inhibitory activity | < 1
9 | CC(=O)Oc1ccccc1C(=O)Nc1ncc([N+](=O)[O-])s1 [NTZ, nitazoxanide] | 16 | 0.8 | – | – | 81 (2) ^* % | 65 (4) ^* % | 12.8 | 1.3 | 1.5 | – | – | – | – | – | – | –
10 | Epigallocatechin 3-gallate [Epigallocatechin 3-gallate (EGCG)] | – | – | – | – | 68 (7) ^* % | 28 (5) ^* % | – | – | – | 4.5 | – | 35.4 | – | – | – | –
11 | CCOC(=O)C1=C[C@@H](OC(CC)CC)[C@H](NC(C)=O)[C@@H](N)C1 [Oseltamivir, oseltamivir phosphate] | >660 | 0.15 | potently inhibited | little effect | 103 (6) % | 95 (5) % | > 100 | 0.5 | 1.1 | – | – | – | – | – | potently inhibited | –
12 | CC[C@H](C)[C@H](N)C1=N[C@H](C(=O)N[C@@H](CC(C)C)C(=O)N[C@H](CCC(=O)O)C(=O)N[C@H](C(=O)N[C@H]2CCCCNC(=O)[C@H](CC(N)=O)NC(=O)[C@@H](CC(=O)O)NC(=O)[C@H](Cc3cnc[nH]3)NC(=O)[C@@H](Cc3ccccc3)NC(=O)[C@H]([C@@H](C)CC)NC(=O)[C@@H](CCCN)NC2=O)[C@@H](C)CC)CS1 [Bacitracin A, bacitracin A] ({Ileψ(thiazoline)Cys}-L[dE]IK[dOrn]I[dF]H[dD]N; lactam 4-C) | – | > 500 | – | – | 81 (3) ^* % | 53 (12) ^* % | – | > 500 | > 500 | – | – | – | – | – | – | –

From article PMC5831498 (Virus research, 2018)
